Source: paper PMC4749519, “Isoprenylated Flavonoids with PTP1B Inhibition from Macaranga denticulata” (Natural Products and Bioprospecting, 2016)

Target: T1, protein tyrosine phosphatase 1B (PTP1B) (Homo sapiens, UniProt P18031)
T1 sequence (P18031 1-435): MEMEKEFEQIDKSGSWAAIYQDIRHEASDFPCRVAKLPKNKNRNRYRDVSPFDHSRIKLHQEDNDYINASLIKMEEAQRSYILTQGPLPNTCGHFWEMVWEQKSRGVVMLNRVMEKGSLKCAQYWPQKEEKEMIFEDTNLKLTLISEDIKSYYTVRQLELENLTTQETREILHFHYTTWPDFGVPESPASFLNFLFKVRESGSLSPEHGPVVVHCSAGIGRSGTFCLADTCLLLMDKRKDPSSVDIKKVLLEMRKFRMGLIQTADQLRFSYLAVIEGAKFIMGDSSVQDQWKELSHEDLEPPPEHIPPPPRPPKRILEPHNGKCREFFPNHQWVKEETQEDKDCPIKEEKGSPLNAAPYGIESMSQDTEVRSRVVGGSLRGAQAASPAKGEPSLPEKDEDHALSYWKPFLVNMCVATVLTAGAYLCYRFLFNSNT
Test: Assay of PTP1B activity (in vitro enzyme inhibition)
Assay type: biochemical
Settings: in vitro PTP1B enzymatic activity; oleanolic acid as positive control; read-out: IC50 ± SD, inhibitory activity against PTP1B
Description: The bioassay procedure was the same as that reported previously. The result of PTP1B inhibition was expressed as IC50, which was calculated with Prism 4 software (Graphpad, San Diego, CA).

Row | SMILES | IC50 [µM]
1 | COc1ccc(/C=C/C(=O)c2c(O)c(C)c(O)c3c2OC(C)(C)C=C3)cc1 [Compound 4, (2E)-1-(5,7-dihydroxy-2,2,6-trimethyl-2H-benzopyran-8-yl)-3-(4-methoxyphenyl)-2-propen-1-one] | 48.8 ± 5.5
2 | CC1(C)C=Cc2c(O)c(C(=O)/C=C/c3ccc(O)cc3)c3c(c2O1)C=CC(C)(C)O3 [Compound 6, laxichalcone] | 20.7 ± 5.3
3 | CC(C)=CCC/C(C)=C/Cc1c(O)cc2c(c1O)C(=O)C[C@@H](c1ccc(O)cc1)O2 [Compound 9, bonannione A] | 14 ± 1.2

Continued by falling IC50, values first:

Row | IC50 [µM] | SMILES
4 | 22.7 ± 4.6 | CC(C)=CCC/C(C)=C/Cc1c(O)cc2oc(-c3ccc(O)cc3)c(O)c(=O)c2c1O [Compound 7, macarangin]
5 | 19.3 ± 1.4 | CC1(C)C=Cc2c(O)cc(O)c(C(=O)/C=C/c3ccccc3)c2O1 [Compound 5, (2E)-1-(5,7-dihydroxy-2,2-dimethyl-2H-benzopyran-8-yl)-3-phenyl-2-propen-1-one]
6 | 15.2 ± 2.8 | CC(C)=CCC/C(C)=C/Cc1c(O)cc2c(c1O)C(=O)[C@H](O)[C@@H](c1ccc(O)cc1)O2 [Compound 8, bonanniol A]
